In patent US20250230193A1, “CYCLIC COMPOUND HAVING SELECTIVE KRAS INHIBITORY EFFECT ON HRAS AND NRAS” (CHUGAI SEIYAKU KABUSHIKI KAISHA, priority 2022, published 2025):
Where a SMILES comes first, the peptide text is derived from it. Bridges are numbered along the chain shown (N, C = ends). [ ]: non-standard residue; d: D form. The star is where a group is joined. hPhe(3-Cl-4-CF3) = N[C@@H](CCc1ccc(C(F)(F)F)c(Cl)c1)C(=O)O; NPrPhe(4-CF3) = CCCN[C@@H](Cc1ccc(C(F)(F)F)cc1)C(=O)O; NMeAbu(4,4,4-F3) = CN[C@@H](CC(F)(F)F)C(=O)O; NMeGly(cPent) = CN[C@H](C(=O)O)C1CCCC1; NMeD = CN[C@@H](CC(=O)O)C(=O)O; Morpholide = C1CN(*)CCO1; NMeA = CN[C@@H](C)C(=O)O; Ac5c = NC1(C(=O)O)CCCC1; Aze = O=C(O)[C@@H]1CCN1; Sar = CNCC(=O)O

How the values were obtained:
[1] = molecular target: GDP-bound NRAS wild-type protein (Homo sapiens, UniProt P01111); assay: Binding to NRAS by surface plasmon resonance (SPR), Single Cycle Kinetics; details: SPR; for NRAS/KRAS (ratio of KD value for NRAS to KD value for KRAS) / NRAS/KRAS (ratio of KD value with respect to NRAS to KD value with respect to KRAS): GDP-bound NRAS wild-type vs GDP-bound KRAS wild-type
[2] = molecular target: GDP-bound HRAS wild-type protein (Homo sapiens, UniProt P01112); assay: Binding to HRAS by surface plasmon resonance (SPR), Single Cycle Kinetics; details: SPR; for HRAS/KRAS (ratio of KD value for HRAS to KD value for KRAS) / HRAS/KRAS (ratio of KD value with respect to HRAS to KD value with respect to KRAS): GDP-bound HRAS wild-type vs GDP-bound KRAS wild-type
GDP-bound HRAS wild-type protein, sequence (P01112 whole entry): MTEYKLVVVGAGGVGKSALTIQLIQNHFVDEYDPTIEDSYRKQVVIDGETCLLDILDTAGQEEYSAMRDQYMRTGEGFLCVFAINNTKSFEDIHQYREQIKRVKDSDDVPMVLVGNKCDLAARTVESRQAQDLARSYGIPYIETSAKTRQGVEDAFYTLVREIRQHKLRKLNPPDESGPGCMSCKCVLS

GDP-bound NRAS wild-type protein, sequence (P01111 whole entry): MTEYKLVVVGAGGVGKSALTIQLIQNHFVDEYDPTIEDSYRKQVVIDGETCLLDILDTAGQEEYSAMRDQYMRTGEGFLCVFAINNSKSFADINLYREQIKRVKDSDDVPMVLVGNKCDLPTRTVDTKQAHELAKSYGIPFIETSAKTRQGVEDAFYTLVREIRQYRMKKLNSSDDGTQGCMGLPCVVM

CCCN1C(=O)[C@@H]2CCN2C(=O)[C@H](C)N(C)C(=O)[C@H]([C@@H](C)CC)NC(=O)[C@H](CC(F)(F)F)N(C)C(=O)C[C@@H](C(=O)N2CCOCC2)N(C)C(=O)[C@H](C2CCCC2)N(C)C(=O)C2(CCCC2)NC(=O)[C@@H]2CCCN2C(=O)[C@H](CCc2ccc(C(F)(F)F)c(Cl)c2)NC(=O)CN(C)C(=O)[C@@H]1Cc1ccc(C(F)(F)F)cc1 [PP0191] ([NMeAbu(4,4,4-F3)]I[NMeA][Aze][NPrPhe(4-CF3)][Sar][hPhe(3-Cl-4-CF3)]P[Ac5c][NMeGly(cPent)][NMeD]-Morpholide; lactam N-11)
NRAS/KRAS (ratio of KD for GDP-bound NRAS wild-type to KD for KRAS) ([1]; KD ratio NRAS/KRAS): C (A compound having a KD ratio of 0.1 or more and less than 3 is denoted as C)
HRAS/KRAS (ratio of KD for GDP-bound HRAS wild-type to KD for KRAS) ([2]; KD ratio HRAS/KRAS): B (a compound having 3 or more and less than 10 is denoted as B)

CC[C@H](C)[C@@H]1NC(=O)[C@H](CC(F)F)N(C)C(=O)C[C@@H](C(=O)N(C)C)N(C)C(=O)[C@H](C2CCCC2)N(C)C(=O)C2(CC(C)(C)C2)NC(=O)[C@@H]2C[C@H](C)CN2C(=O)[C@H](CCc2cc(F)c(C(F)(F)F)c(F)c2)NC(=O)CN(C)C(=O)[C@H](Cc2ccc(C(F)(F)F)cc2)N2CC/C=C\C[C@@H](C2=O)N(C)C(=O)CN(C)C1=O [PP1658]
NRAS/KRAS (ratio of KD value for NRAS to KD value for KRAS) ([1]; KD ratio): A (a compound having 10 or more and less than 20 is denoted as A)
HRAS/KRAS (ratio of KD value for HRAS to KD value for KRAS) ([2]; KD ratio): A (a compound having 10 or more and less than 20 is denoted as A)

CCO[C@@H]1C[C@H]2C(=O)NC3(CCC3)C(=O)N(C)[C@@H](C3CCCC3)C(=O)N(C)[C@H](C(=O)N3CCOCC3)CC(=O)N(C)[C@@H](CC3CCC3)C(=O)N[C@@H]([C@@H](C)CC)C(=O)N(C)CC(=O)N(C)[C@H]3CCCCN(C3=O)[C@@H](Cc3ccc(C(F)(F)F)cc3)C(=O)N(C)CC(=O)N[C@@H](CCc3cc(F)c(C(F)(F)F)c(F)c3)C(=O)N2C1 [PP0713]
NRAS/KRAS (ratio of KD value with respect to GDP-bound NRAS wild-type protein to KD value with respect to KRAS) ([1]; KD ratio NRAS/KRAS): C (A compound having a KD ratio of 0.1 or more and less than 3 is denoted as C)
HRAS/KRAS (ratio of KD value with respect to GDP-bound HRAS wild-type protein to KD value with respect to KRAS) ([2]; KD ratio HRAS/KRAS): B (a compound having 3 or more and less than 10 is denoted as B)

CCO[C@@H]1C[C@H]2C(=O)NC3(CCC3)C(=O)N(C)[C@@H](C3CCCC3)C(=O)N(C)[C@H](C(=O)N(C)C)CC(=O)N(C)[C@@H](CC3CCCCC3)C(=O)N[C@@H]([C@@H](C)CC)C(=O)N(C)CC(=O)N(C)[C@H]3CCCCN(C3=O)[C@@H](Cc3ccc(C(F)(F)F)cc3)C(=O)N(C)CC(=O)N[C@@H](CCc3cc(F)c(C(F)(F)F)c(F)c3)C(=O)N2C1 [PP0701]
NRAS/KRAS (ratio of KD value with respect to GDP-bound NRAS wild-type protein to KD value with respect to KRAS) ([1]; KD ratio NRAS/KRAS): C (A compound having a KD ratio of 0.1 or more and less than 3 is denoted as C)
HRAS/KRAS (ratio of KD value with respect to GDP-bound HRAS wild-type protein to KD value with respect to KRAS) ([2]; KD ratio HRAS/KRAS): B (a compound having 3 or more and less than 10 is denoted as B)

CCCN(C)C(=O)[C@@H]1CC(=O)N(C)[C@@H](C(C)C)C(=O)N[C@@H]([C@@H](C)CC)C(=O)N(C)CC(=O)N(C)[C@H]2C/C=C\CCN(C2=O)[C@@H](Cc2ccc(C(F)(F)F)cc2)C(=O)N(C)CC(=O)N[C@@H](CCc2ccc(C(F)(F)F)c(OC)c2)C(=O)N2C[C@@H](C)C[C@H]2C(=O)NC2(CCC2)C(=O)N(C)[C@@H](C2CCCC2)C(=O)N1C [PP2067]
NRAS/KRAS (ratio of KD value with respect to NRAS to KD value with respect to KRAS) [1]: AA (a compound having 20 or more is denoted as AA)
HRAS/KRAS (ratio of KD value with respect to HRAS to KD value with respect to KRAS) [2]: A (a compound having 10 or more and less than 20 is denoted as A)

CCOC[C@H]1C(=O)N[C@@H]([C@@H](C)CC)C(=O)N(C)CC(=O)N(C)[C@H]2C/C=C\CCN(C2=O)[C@@H](Cc2ccc(C)cc2)C(=O)N(C)CC(=O)N[C@@H](CCc2cc(F)c(C(F)(F)F)c(F)c2)C(=O)N2C[C@@H](C)C[C@H]2C(=O)NC2(CC(C)(C)C2)C(=O)N(C)[C@@H](C2CCCC2)C(=O)N(C)[C@H](C(=O)N(CC)CC)CC(=O)N1C [PP2407]
NRAS/KRAS (ratio of KD value with respect to NRAS to KD value with respect to KRAS) [1]: A (a compound having 10 or more and less than 20 is denoted as A)
HRAS/KRAS (ratio of KD value with respect to HRAS to KD value with respect to KRAS) [2]: A (a compound having 10 or more and less than 20 is denoted as A)

CCO[C@@H]1C[C@H]2C(=O)NC3(CC(C)(C)C3)C(=O)N(C)[C@@H](C3CCCC3)C(=O)N(C)[C@H](C(=O)N(C)C)CC(=O)N(C)[C@@H](CC(F)(F)F)C(=O)N[C@@H]([C@@H](C)CC)C(=O)N(C)CC(=O)N(C)[C@H]3C/C=C\CCN(C3=O)[C@@H](Cc3ccc(C(F)(F)F)cc3)C(=O)N(C)CC(=O)N[C@@H](CCc3cc(F)c(C(F)(F)F)c(F)c3)C(=O)N2C1 [PP1644]
NRAS/KRAS (ratio of KD value for NRAS to KD value for KRAS) ([1]; KD ratio): A (a compound having 10 or more and less than 20 is denoted as A)
HRAS/KRAS (ratio of KD value for HRAS to KD value for KRAS) ([2]; KD ratio): A (a compound having 10 or more and less than 20 is denoted as A)

CCO[C@@H]1C[C@H]2C(=O)NC3(CCC3)C(=O)N(C)[C@@H](C3CCCC3)C(=O)N(C)[C@H](C(=O)N3CCOCC3)CC(=O)N(C)[C@@H](COC)C(=O)N[C@@H]([C@@H](C)CC)C(=O)N3CC[C@H]3C(=O)N(C)[C@H]3CCCCCN(C3=O)[C@@H](Cc3ccc(C(F)(F)F)cc3)C(=O)N(C)CC(=O)N[C@@H](CCc3cc(F)c(C(F)(F)F)c(F)c3)C(=O)N2C1 [PP0863]
NRAS/KRAS (ratio of KD value with respect to NRAS to KD value with respect to KRAS) ([1]; KD ratio): B (a compound having 3 or more and less than 10 is denoted as B)
HRAS/KRAS (ratio of KD value with respect to HRAS to KD value with respect to KRAS) ([2]; KD ratio): B (a compound having 3 or more and less than 10 is denoted as B)
